Laboratory results: patent US20060063736A1, “Compositions and methods for inhibiting mucin-type O-linked glycosylation” (priority 2004, published 2006)

Columns and labels:
mppGalNAcT-4 = target: T1, mppGalNAcT-4 (Mus musculus, UniProt O08832); assay: ELLA for ppGalNAcTs, mppGalNAcT-4; format: biochemical, murine; details: 20 μM UDP-GalNAc, 50 μM EA2 peptide 4
T1 construct: plasmids encoding truncated secreted ppGalNAcTs-1 to −5, -7, -10 and -11; made in house; host or cells: COS-7
T1 sequence (O08832 36-578 limits assumed): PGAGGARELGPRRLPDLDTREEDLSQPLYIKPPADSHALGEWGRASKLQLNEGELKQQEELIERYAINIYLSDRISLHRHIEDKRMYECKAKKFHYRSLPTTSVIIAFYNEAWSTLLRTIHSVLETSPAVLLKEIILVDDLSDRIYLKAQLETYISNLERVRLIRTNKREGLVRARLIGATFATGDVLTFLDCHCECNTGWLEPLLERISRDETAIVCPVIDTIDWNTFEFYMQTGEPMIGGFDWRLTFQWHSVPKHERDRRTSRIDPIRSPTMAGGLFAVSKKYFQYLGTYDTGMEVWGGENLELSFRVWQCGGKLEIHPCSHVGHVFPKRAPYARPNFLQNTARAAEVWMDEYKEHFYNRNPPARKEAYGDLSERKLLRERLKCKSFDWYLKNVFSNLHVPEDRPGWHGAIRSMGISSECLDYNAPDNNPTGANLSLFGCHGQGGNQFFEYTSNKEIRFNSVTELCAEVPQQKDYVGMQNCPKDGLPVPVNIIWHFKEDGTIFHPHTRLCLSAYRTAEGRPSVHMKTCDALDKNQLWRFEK
Experimental: (§1) COS-7 cells were transiently transfected with plasmids encoding truncated secreted ppGalNAcTs-1 to −5, -7, -10 and -11 as previously described. Hagen et al. (1997) J. Biol. Chem. 272:13843-13848. The crude conditioned medium was used as the enzyme source.
(§2) Standard reaction conditions for ppGalNAcT assays were as follows. The reaction mixture contained the following components in a final volume of 25 μL: 10 mM MnCl2, 40 mM sodium cacodylate, 40 mM β-mercaptoethanol, 0.1% Triton X-100, pH 6.5, 5 μL of conditioned media, and various concentrations of EA2 peptide 4, UDP-GalNAc and inhibitor. All uridine-based compounds were dissolved in dimethyl sulfoxide (DMSO). […] Reaction rates were linear over the period monitored (20-30 min).
(§3) 96-Well NeutrAvidin-coated plates were prewashed 3 times with 200 μL of wash buffer (25 mM Tris, 150 mM NaCl, 0.1% bovine serum albumin (BSA) (w/v), and 0.05% Tween (v/v), pH 7.2). […] After 3 washes with 200 μL of PBS, bound HPA-HRP was quantified by the addition of 100 μL of TMB peroxide solution. […] HRP activity was terminated by the addition of 50 μL of 2 N H2SO4 and the resulting solution was analyzed at 450 nm using a UV/Vis microtiter plate reader. The amount of product generated by the ppGalNAcT was extrapolated from absorbance values using an equation fit to the standard curve derived from Origin 6.1 software.

mppGalNAcT-11 = target: T2, mppGalNAcT-11 (Mus musculus, UniProt Q921L8); assay: ELLA for ppGalNAcTs, mppGalNAcT-11; format: biochemical, murine; details: 20 μM UDP-GalNAc, 50 μM EA2 peptide 4
T2 construct: plasmids encoding truncated secreted ppGalNAcTs-1 to −5, -7, -10 and -11; made in house; host or cells: COS-7
T2 sequence (Q921L8 30-608 limits assumed): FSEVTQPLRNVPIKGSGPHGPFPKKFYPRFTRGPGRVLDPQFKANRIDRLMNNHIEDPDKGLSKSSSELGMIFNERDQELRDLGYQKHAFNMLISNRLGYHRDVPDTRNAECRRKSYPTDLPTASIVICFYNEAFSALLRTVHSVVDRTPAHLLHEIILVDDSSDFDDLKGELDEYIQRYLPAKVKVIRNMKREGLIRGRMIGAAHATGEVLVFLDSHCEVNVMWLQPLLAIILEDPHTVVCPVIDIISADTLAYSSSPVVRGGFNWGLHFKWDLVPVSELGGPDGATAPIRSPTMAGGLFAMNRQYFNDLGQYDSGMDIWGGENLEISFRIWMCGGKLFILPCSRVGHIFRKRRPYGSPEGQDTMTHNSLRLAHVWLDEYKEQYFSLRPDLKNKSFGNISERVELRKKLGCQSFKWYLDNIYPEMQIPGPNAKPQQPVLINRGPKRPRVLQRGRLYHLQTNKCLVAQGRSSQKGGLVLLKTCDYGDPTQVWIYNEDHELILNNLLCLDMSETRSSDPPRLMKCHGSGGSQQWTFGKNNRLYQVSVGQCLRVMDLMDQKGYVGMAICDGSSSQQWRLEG
Experimental: as §1, §2, §3

[1] = tested on: UDP-galactopyranose mutase; details: Scherman et al. (2003); cited from earlier work
[2] = target: T3, α1-3galactosyltransferase (α1-3GalT) (Sus scrofa, UniProt P50127); assay: Continuous assay for α1-3GalT activity; format: biochemical, porcine; details: for inhibitory activity against α1-3GalT: highest concentration tested (500 μM)
T3 construct: purchased Calbiochem
Experimental: The enzymatic reactions contained the following components in a final volume of 100 μL: 20 mM MnCl2, 100 mM sodium cacodylate, pH 6.5, 5 U of pyruvate kinase, 5 U of lactate dehydrogenase, 2 mM PEP, 0.2 mM NADH with 0.4 mU of β1-4GalT, 1 mM βOMeGlcNAc, 25 μM UDP-Gal or 1.0 mU of α1-3GalT, 1 mM LacNAc, 100 μM UDP-Gal and various concentrations of 1-68A or 2-68A in 2.5% DMSO. The reaction mixtures were incubated at 37° C. for 10 min before the reaction was initiated by the addition of UDP-Gal. The change in absorbance was monitored over 20 min at 340 nm.
To determine the selectivity of the compounds among the broader family of UDP-sugar utilizing enzymes, 1-68A and 2-68A were tested against bovine β1-4galactosyltransferase (β1-4GalT) and porcine α1-3galactosyltransferase (α1-3GalT), using a previously reported continuous colorimetric assay. Fitzgerald et al. (1970) Anal. Biochem. 36:43-61. Neither compound was active against β1-4GalT or α1-3GalT at the highest concentration tested (500 μM) (Entries 9 and 10, Table 1).

T3 sequence (P50127 whole entry): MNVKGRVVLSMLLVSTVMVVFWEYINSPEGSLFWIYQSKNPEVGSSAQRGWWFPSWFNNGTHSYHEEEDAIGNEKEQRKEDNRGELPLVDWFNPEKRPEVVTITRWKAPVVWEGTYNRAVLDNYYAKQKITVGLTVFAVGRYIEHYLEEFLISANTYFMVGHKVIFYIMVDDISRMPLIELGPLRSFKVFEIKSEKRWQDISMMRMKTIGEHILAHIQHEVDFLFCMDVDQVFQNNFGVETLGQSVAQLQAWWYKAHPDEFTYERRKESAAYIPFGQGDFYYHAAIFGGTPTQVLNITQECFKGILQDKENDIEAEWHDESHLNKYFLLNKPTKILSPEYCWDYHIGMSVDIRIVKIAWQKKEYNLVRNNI

Row | Compound | IC50 (mppGalNAcT-4) [µM] | IC50 (mppGalNAcT-11) [µM] | identified in library screen against UDP-galactopyranose mutase [1] | IC50 [2] [µM] | inhibitory activity against α1-3GalT [2]
1 | O=c1ccn([C@@H]2O[C@H](CON=Cc3ccc(O)c(O)c3O)[C@@H](O)[C@H]2O)c(=O)[nH]1 [1-68A] | 30 ± 5 | 39 ± 3 | not identified | > 500 | lack of inhibitory activity
2 | O=C(CON=Cc1ccc(O)c(O)c1O)NC[C@H]1O[C@@H](n2ccc(=O)[nH]c2=O)[C@H](O)[C@@H]1O [2-68A] | 20 ± 5 | 32 ± 3 | not identified | > 500 | lack of inhibitory activity
